Common to all, as to type: cell-based, human
Test [1] relates to ARPE-19 cells. Put plainly: TGFβ-induced EMT in cultured RPE cells (morphology, qPCR of mesenchymal/profibrotic genes). The following applies: ARPE-19, 5 ng/ml TGF-β1, 24 h, 0% FBS; 1 μM CTC-6 or 10 μM MS-9. How it is done:
Cell culture: ARPE-19 cells were purchased from ATCC (Manassas, VA, USA) were cultured in Eagle's minimal essential medium (EMEM) containing 10% fetal bovine serum (FBS) and antibiotic-antimycotic (Thermo Fisher Scientific) unless otherwise noted.
qPCR analysis: ARPE-19 cells were plated on tissue culture dishes (Thermo Fisher Scientific, 60×15 mm) in EMEM containing 10% FBS and allowed to attach and grow for 24 h. Cells were stimulated with 5 ng/ml TGF-β1 and 10 μM MS-9 or 1 μM CTC-6 in EMEM containing 0% FBS for 24 h prior to RNA isolation using the RNeasy Plus Mini Kit (Qiagen, Hilden, Germany) according to the manufacturer's instructions. Isolated RNA (500 ng) was then used to synthesize cDNA using SuperScript VILO (Invitrogen, Carlsbad, CA, USA). Quantitative PCR (qPCR) was performed using FastStart Essential DNA Green Master and analyzed with LightCycler 96 (Roche, Basel, Switzerland). Data are expressed as a fold change by ΔΔCt relative to the level of the GAPDH housekeeping gene, and normalized to control.
As expected, TGFβ stimulated morphological changes consistent with EMT (FIG. 2A) and enhanced expression of ECM genes: COL1A1 and COL3A1, connective tissue growth factor (CTGF) and alpha-smooth muscle actin (ACTA2) (FIG. 2B).
(In general: Quantitative PCR measures a nucleic acid by following its amplification.)

In test [2] the test system is ARPE-19 cells. In words: qPCR of profibrotic gene expression in ARPE-19 cells ±TGFβ. How it is done: Cell culture: The human RPE cell line ARPE-19 was purchased from ATCC and cultured in Dulbecco's Modified Eagle Medium/Nutrient Mixture F-12 (DMEM/F-12) supplemented with 2.50 mM L-Glutamine, 15 mM HEPES Buffer, 10% fetal bovine serum (FBS), and 1% Antibiotic-Antimycotic (Gibco), unless otherwise noted. Cells were maintained in a humidified 37° C., 5% CO2 incubator. All experiments were performed with cells at passage 3-6. Chemicals and Reagents: dimethyl sulfoxide (DMSO) was purchased from Fisher Scientific and used to solubilize fenoldopam and SCH 39166. 2-mercaptoethanol was purchased from Bio-Rad Laboratories and added to RLT buffer prior to RNA isolation, as per Qiagen instructions. Fenoldopam and SCH 39166 were purchased from Cayman Chemical Company. TGFβ was purchased from InvivoGen. Fenoldopam, like a majority of […], has a characteristically short half-life. To take this into account we changed media daily to assess the efficacy of fenoldopam to inhibit fibrotic activation in vitro. RNA Isolation/qPCR Analysis: ARPE-19 cells were plated into 12 well plates (100,000 cells/well) and allowed to attach. Media was removed and replaced with the media specified in the “Cell Culture” section above, minus FBS. Cells were treated for 24 hours ±TGFβ (10 ng/mL), 10 μM fenoldopam, and 3 μM SCH 39166. RNA was isolated using the RNeasy Plus Mini Kit (Qiagen) and the manufacturer's protocol. Isolated RNA was converted to cDNA using the SuperScript VILO cDNA Synthesis Kit (Invitrogen) and the PTC-200 Peltier Thermal Cycler (MJ Research). Quantitative PCR (qPCR) was performed using FastStart Essential DNA Green Master (Roche) and LightCycler 96 (Roche).

For test [3], the system named is ARPE-19 cells. In words: Wound healing (wound migration) assay. The conditions noted are these: ARPE-19, ±TGFβ 10 ng/mL, 10 μM fenoldopam, 0-72 hours, media changed every 24 hours. How it is done:
Cell culture: The human RPE cell line ARPE-19 was purchased from ATCC and cultured in Dulbecco's Modified Eagle Medium/Nutrient Mixture F-12 (DMEM/F-12) supplemented with 2.50 mM L-Glutamine, 15 mM HEPES Buffer, 10% fetal bovine serum (FBS), and 1% Antibiotic-Antimycotic (Gibco), unless otherwise noted. Cells were maintained in a humidified 37° C., 5% CO2 incubator. All experiments were performed with cells at passage 3-6. Wound Healing Assay: ARPE-19 cells were plated confluent into a 12-well plate (300,000 cells/well) and allowed to attach. Cells were exposed to a single scratch made with a p200 pipette tip. Media was removed and replaced with the media specified in the “Cell Culture” section above, without FBS. Cells were treated ±TGFβ (10 ng/mL), 10 μM fenoldopam replacing media conditions every 24 hours for wells treated with fenoldopam. Cells were imaged after treatment for 0, 24, 48, and 72 hours. Cells were imaged with an inverted phase-contract microscope and wound area was measured using ImageJ software as previously described.

Test [4] relates to ARPE-19 cells. In words: LIVE/DEAD assay. The conditions noted are these: ARPE-19, ±2% FBS, 10 μM fenoldopam, 4 days. How it is done: (§1) Cell culture: The human RPE cell line ARPE-19 was purchased from ATCC and cultured in Dulbecco's Modified Eagle Medium/Nutrient Mixture F-12 (DMEM/F-12) supplemented with 2.50 mM L-Glutamine, 15 mM HEPES Buffer, 10% fetal bovine serum (FBS), and 1% Antibiotic-Antimycotic (Gibco), unless otherwise noted. Cells were maintained in a humidified 37° C., 5% CO2 incubator. All experiments were performed with cells at passage 3-6. Proliferation and Live/Dead Assays: ARPE-19 cells were plated into 96-well plates (1,000 cells/well) and allowed to attach. Media was removed and replaced with the media specified in the “Cell Culture” section above, with reduced FBS. Cells were treated for four days ±2% FBS, and 10 μM fenoldopam, replacing media conditions every 24 hours for wells treated with fenoldopam. After four days, CellTiter-Fluor™ (Promega) was added to each well according to the manufacturer and measured on a Flexstation 3 (Molecular Devices) plate reader for the proliferation assay. For the LIVE/DEAD™ assay, each component of the kit (Thermo Fisher Scientific) was added, then cells were incubated for 30 minutes. Fluorescent images were then taken using a Cytation 5 imaging reader (BioTek) and quantified for cytotoxicity/viability.

In test [5] the test system is ARPE-19 cells. In words: Fibronectin deposition (immunofluorescence). The following applies: ARPE-19, ±TGFβ 10 ng/mL, 10 μM fenoldopam, 4 days. How it is done: Cell culture: The human RPE cell line ARPE-19 was purchased from ATCC and cultured in Dulbecco's Modified Eagle Medium/Nutrient Mixture F-12 (DMEM/F-12) supplemented with 2.50 mM L-Glutamine, 15 mM HEPES Buffer, 10% fetal bovine serum (FBS), and 1% Antibiotic-Antimycotic (Gibco), unless otherwise noted. Cells were maintained in a humidified 37° C., 5% CO2 incubator. All experiments were performed with cells at passage 3-6. Fibronectin Deposition: ARPE-19 cells were plated into 96-well plates (10,000 cells/well) and allowed to attach. Media was removed and replaced with the media specified in the “Cell Culture” section above, without FBS. Cells were treated for four days ±TGFβ (10 ng/mL), 10 μM fenoldopam, replacing media conditions every 24 hours for wells treated with fenoldopam. Cells were fixed with 10% neutral buffered formalin (Sigma-Aldrich) for 15 minutes. Cells were permeabilized with 0.25% Triton X-100 (Sigma-Aldrich) and blocked with 1% BSA for 1 hour. Cells were incubated with mouse monoclonal IgG3 primary antibodies against fibronectin (Santa Cruz Biotechnology), which were diluted 1:400 in 0.25% Triton X-100 (Sigma-Aldrich) with 1% BSA. Cells were incubated with primary antibodies either in 4° C. overnight or at room temperature for 2 hours. […] Immunofluorescence was measured using a Cytation 5 imaging reader (BioTek).

Test [6] relates to ARPE-19 cells. Put plainly: Proliferation assay (CellTiter-Fluor). The conditions noted are these: ARPE-19, ±2% FBS, 10 μM fenoldopam, 4 days. How it is done:
as §1

With `NCC1OC(c2ccncc2)Cc2c1ccc(O)c2O` (centres unmarked) [CTC-6], the “markers of EMT (morphology; COL1A1, COL3A1, CTGF, ACTA2 expression)” value in test [1] was “blocked markers of EMT”.

On to `CN1CCc2cc(Cl)c(O)cc2[C@H]2c3ccccc3CC[C@@H]21` [SCH 39166], for which the “effect of D5 antagonist alone in the presence of TGFβ on profibrotic gene expression” value in test [2] (ARPE-19, TGFβ 10 ng/mL + 3 μM SCH 39166, 24 hours) is reported as “no effect”. Moreover, the “effect of D5 antagonist on the antifibrotic effects of fenoldopam (profibrotic gene expression)” value in test [2] (ARPE-19, TGFβ 10 ng/mL + 10 μM fenoldopam + 3 μM SCH 39166, 24 hours) is recorded as “surmount the antifibrotic effects of fenoldopam”.

Take `Oc1ccc(C2CNCCc3c2cc(O)c(O)c3Cl)cc1` (centres unmarked) [fenoldopam]: the “antifibrotic response in wound migration assay” value in test [3] is on record as “robust antifibrotic response”. The “antifibrotic response in live/dead assay” value in test [4] is given as “robust antifibrotic response”. The “antifibrotic response in fibronectin deposition assay” value in test [5] is reported as “robust antifibrotic response”. Moreover, in test [2] (ARPE-19, TGFβ 10 ng/mL, 10 μM fenoldopam, 24 hours), the “expression of COL1A1, ACTA2, and FN1 compared to TGFβ exclusively” value is “significant decrease”. Besides, the “antifibrotic response in proliferation assay” value in test [6] is listed as “robust antifibrotic response”.

Source of the values: patent US20240043396A1, “METHODS OF TREATING OCULAR FIBROTIC PATHOLOGIES” (Mayo Foundation for Medical Education and Research, priority 2021, published 2024).
